Values of other authors as cited in PMC5383348 (Trends in cancer, 2017).

Assays:
[1] = system: xenograft models for triple-negative breast cancer and multiple myeloma
[2] = system: cultured cancer cell lines for triple-negative breast cancer and multiple myeloma
recombinant human GLS = settings: read-out: IC50 value against recombinant human GLS

IC50 (recombinant human GLS): < 50 nM
Structure (SMILES): O=C(Cc1cccc(OC(F)(F)F)c1)Nc1ccc(CCCCc2nnc(NC(=O)Cc3ccccn3)s2)nn1 [CB-839]
efficacy against xenograft models [1]: shown efficacy | efficacy against cultured cancer cell lines [2]: shown efficacy
